Patent US20120202756A1, “USE OF PRODRUGS TO AVOID GI MEDIATED ADVERSE EVENTS” (priority 2009, published 2012)
Values after ≈ are worked out from the molar mass of the structure shown. Read-outs that look alike come from different tables or passages of the source.

Key:
[1] = Stability in simulated intestinal juice (FaSSIF); type: in vitro ADME; settings: FaSSIF pH 6.5, pancreatin 1%, prodrug 20 μg/mL
Protocol: To avoid direct interaction between the active drug and the gut microfloral population, the prodrug should not undergo premature chemical or enzymic cleavage back to the parent dug while within the gut lumen. To confirm this the prodrugs were incubated with USP SGF (simulated gastric fluid), FeSSIF (fed state simulated intestinal fluid) and FaSSIF (fasted state simulated intestinal fluid) and remaining prodrug and any generated active drug assayed by use of a qualified LC-MS/MS analytical method.
Method—Prodrug (20 μg/mL) in the FaSSIF cocktail comprising sodium taurocholate 3 mM, lecithin 0.75 mM, NaOH 8.7 mM, NaH2PO4. H2O 28.7 mM, NaCl 106 mM, pancreatin 1% (overall pH 6.5) was incubated for 2 h at 37° C. After acidifying the incubation to stop any reaction the amount of prodrug remaining and drug generated were determined using a qualified LC-MS/MS method.
To minimize the direct inhibitory action of this drug on gastric emptying/gut motility—and resultant nausea—the prodrug should not undergo premature chemical or enzymic cleavage back to the parent drug while within the gut lumen. To confirm this, the prodrugs were incubated with USP SGF (simulated gastric fluid), FeSSIF (fed state simulated intestinal fluid) and FaSSIF (fasted state simulated intestinal fluid) and remaining prodrug, and any generated active drug, assayed by use of a qualified LC-MS/MS analytical method.
Prodrug (20 μg/mL) in the FaSSIF cocktail comprising sodium taurocholate 3 mM, lecithin 0.75 mM, NaOH 8.7 mM, NaH2PO4. H2O 28.7 mM, NaCl 106 mM, pancreatin 1% (overall pH 6.5) was incubated for 2 h at 37° C. After acidifying the incubation to stop any reaction the amount of prodrug remaining and drug generated were determined using a qualified LC-MS/MS method.
To avoid direct interaction between the active drug and the gut, the prodrug should not undergo premature chemical or enzymic cleavage back to the parent dug while within the gut lumen. To confirm this the prodrugs were incubated with USP SGF (simulated gastric fluid), FeSSIF (fed state simulated intestinal fluid) and FaSSIF (fasted state simulated intestinal fluid) and remaining prodrug and any generated active drug assayed by use of a qualified LC-MS/MS analytical method.

[2] = test system: Bacteroides fragilis; assay: MIC, clindamycin prodrugs; type: cell-based; settings: for MIC: Bacteroides fragilis
[3] = test system: Bacteroides thetaiotamicron; assay: MIC, clindamycin prodrugs; type: cell-based; settings: for MIC: Bacteroides
[4] = test system: Bifidobacterium adolescentis; assay: MIC, clindamycin prodrugs; type: cell-based
[5] = test system: Bifidobacterium dentium; assay: MIC, clindamycin prodrugs; type: cell-based
[6] = test system: Bifidobacterium longum; assay: MIC, clindamycin prodrugs; type: cell-based
[7] = test system: Clostridium perfringens; assay: microbe, parasite or virus in culture; type: cell-based; settings: for MIC: Clostridium perfringens
[8] = test system: Clostridium sporogenes; assay: MIC, clindamycin prodrugs; type: cell-based; settings: ATCC 3584
[9] = test system: Peptostreptococcus anaerobius; assay: MIC, clindamycin prodrugs; type: cell-based; settings: NCTC 11460
[10] = test system: Prevotella melaninogenicus; assay: MIC, clindamycin prodrugs; type: cell-based
[11] = test system: Propionibacterium acnes; assay: MIC, clindamycin prodrugs; type: cell-based; settings: for MIC: Cutibacterium acnes
[12] = test system: Veillonella atypical; assay: MIC, clindamycin prodrugs; type: cell-based
[13] = test system: Veillonella parvula; assay: MIC, clindamycin prodrugs; type: cell-based
[14] = test system: Campylobacter coli; assay: MIC, clindamycin prodrugs; type: cell-based; settings: for MIC: Campylobacter coli
[15] = test system: Campylobacter jejuni; assay: MIC, clindamycin prodrugs; type: cell-based; settings: for MIC: Campylobacter jejuni
[16] = test system: Helicobacter pylori; assay: MIC, clindamycin prodrugs; type: cell-based; settings: for MIC: Helicobacter pylori
[17] = test system: Staphylococcusaureus; assay: MIC, clindamycin prodrugs; type: cell-based
[18] = test system: Staphylococcus epidermidis; assay: MIC, clindamycin prodrugs; type: cell-based
[19] = test system: Staphylococcus haemolyticus; assay: MIC, clindamycin prodrugs; type: cell-based
[20] = test system: Streptococcus pneumoniae; assay: MIC, clindamycin prodrugs; type: cell-based; settings: for MIC: Streptococcus pneumoniae
[21] = test system: Streptococcus pyogenes; assay: MIC, clindamycin prodrugs; type: cell-based
[22] = test system: Group C Streptococcus; assay: MIC, clindamycin prodrugs; type: cell-based
[23] = test system: Porphyromonas assacharolyticus; settings: clinical isolate
[24] = test system: Prevotella bivia; settings: ATCC 29303
[25] = test system: Prevotella denticola; settings: clinical isolate
[26] = test system: Staphylococcus saprophyticus; settings: antibiotic susceptible clinical isolate
[27] = test system: Listeria monocytogenes; settings: antibiotic-susceptible clinical isolate
[28] = test system: Group G Streptococcus; settings: antibiotic-susceptible clinical isolate
[29] = test system: Streptococcus mitis; settings: antibiotic-susceptible clinical isolate
[30] = antibiotic-susceptible clinical isolate
[31] = clinical isolate (second listed, r38)
[32] = antibiotic susceptible clinical isolate
[33] = methicillin-resistant clinical isolate
[34] = Macrolide (MLS) resistant clinical isolate
[35] = read-out: Minimum inhibitory concentration

SMILES: CCCC1CC(C(=O)NC(C(C)Cl)C2OC(SC)C(OC(=O)CCCC(=O)Nc3ccc(C(=O)O)cc3)C(O)C2O)N(C)C1.O=C(O)C(F)(F)F (stereo not drawn) [Clindamycin glutaryl PABA ester, Clindamycin-2-(glutaryl-PABA) ester trifluoroacetate]
- Simulated intestinal juice (2 h, 37° C.) (FaSSIF) % active drug generated [1]: <1%
- Minimum inhibitory concentration ([2]; ATCC 25285): 64 µg/mL
- Minimum inhibitory concentration ([2]; clinical isolate): 16 µg/mL
- Minimum inhibitory concentration ([3]; ATCC 29741): >64 µg/mL
- Minimum inhibitory concentration ([3]; NCTC 10582): >64 µg/mL
- Minimum inhibitory concentration ([4]; NCTC 11814): 2 µg/mL
- Minimum inhibitory concentration ([5]; NCTC 11816): 2 µg/mL
- Minimum inhibitory concentration ([6]; NCTC 11818): 2 µg/mL
- Minimum inhibitory concentration ([7]; ATCC 13124): 8 µg/mL
- Minimum inhibitory concentration [7, 30]: 8 µg/mL
- Minimum inhibitory concentration [8]: >64 µg/mL
- Minimum inhibitory concentration [9]: 32 µg/mL
- Minimum inhibitory concentration ([10]; clinical isolate (first listed, r37)): 0.5 µg/mL
- Minimum inhibitory concentration [10, 31]: 1 µg/mL
- Minimum inhibitory concentration [11]: 8 µg/mL
- Minimum inhibitory concentration ([11]; clinical isolate MIC clindamycin 0.5 mg/L): 8 µg/mL
- Minimum inhibitory concentration ([12]; NCTC 11830): 4 µg/mL
- Minimum inhibitory concentration ([13]; NCTC 11810): 4 µg/mL
- Minimum inhibitory concentration ([14]; ATCC 33559): ≦0.03 ug/mL
- Minimum inhibitory concentration ([14]; clinical isolate): 0.06 µg/mL
- Minimum inhibitory concentration ([15]; ATCC 33560): ≦0.03 ug/mL
- Minimum inhibitory concentration ([15]; clinical isolate): ≦0.03 ug/mL
- Minimum inhibitory concentration ([16]; ATCC 43504): ≦0.03 ug/mL
- Minimum inhibitory concentration ([16]; clinical isolate (r56)): ≦0.03 ug/mL
- Minimum inhibitory concentration ([16]; clinical isolate (r57)): ≦0.03 ug/mL
- Minimum inhibitory concentration ([16]; clinical isolate (r100)): ≦0.03 ug/mL
- Minimum inhibitory concentration ([16]; clinical isolate (r101)): ≦0.03 ug/mL
- Minimum inhibitory concentration ([17]; ATCC 25923 - antibiotic-susceptible type strain): 4 µg/mL
- Minimum inhibitory concentration ([17]; ATCC 29213 - antibiotic-susceptible type strain): 4 µg/mL
- Minimum inhibitory concentration ([17]; ATCC 43300 - methicillin-resistant type strain): >64 µg/mL
- Minimum inhibitory concentration [18, 32]: 4 µg/mL
- Minimum inhibitory concentration [18, 33]: 8 µg/mL
- Minimum inhibitory concentration [19, 32]: 4 µg/mL
- Minimum inhibitory concentration ([20]; ATCC 49619 antibiotic-susceptible type strain): 2 µg/mL
- Minimum inhibitory concentration ([20]; penicillin-susceptible clinical isolate): 1 µg/mL
- Minimum inhibitory concentration [21, 34]: 4 µg/mL
- Minimum inhibitory concentration [21, 30]: 2 µg/mL
- Minimum inhibitory concentration [22, 30]: 2 µg/mL
- Minimum inhibitory concentration [23]: 0.12 µg/mL
- Minimum inhibitory concentration [24]: 1 µg/mL
- Minimum inhibitory concentration [25]: 4 µg/mL
- Minimum inhibitory concentration [26]: 4 µg/mL
- Minimum inhibitory concentration [27]: 32 µg/mL
- Minimum inhibitory concentration [28]: 2 µg/mL
- Minimum inhibitory concentration [29]: 0.5 µg/mL

SMILES: CCC[C@@H]1C[C@@H](C(=O)N[C@@H]([C@H]2O[C@H](SC)[C@H](O)[C@@H](O)[C@H]2O)[C@H](C)Cl)N(C)C1 [Clindamycin, clindamycin, reference compound]
- MIC ([2]; ATCC25285, read-out: Minimum inhibitory concentration): 0.5 µg/mL (≈ 1.18 µM)
- MIC [2, 35]: 0.12 µg/mL (≈ 0.282 µM)
- MIC ([3]; ATCC29741, read-out: Minimum inhibitory concentration): 2 µg/mL (≈ 4.71 µM)
- MIC ([3]; NCTC10582, read-out: Minimum inhibitory concentration): 1 µg/mL (≈ 2.35 µM)
- MIC ([4]; Bifidobacterium adolescentis, NCTC11814, read-out: Minimum inhibitory concentration): ≤ 0.03 µg/mL
- MIC ([5]; Bifidobacterium dentium, NCTC11816, read-out: Minimum inhibitory concentration): ≤ 0.03 µg/mL
- MIC ([6]; Bifidobacterium longum, NCTC11818, read-out: Minimum inhibitory concentration): 0.12 µg/mL (≈ 0.282 µM)
- MIC ([7]; ATCC13124, read-out: Minimum inhibitory concentration): 0.06 µg/mL (≈ 0.141 µM)
- MIC [7, 35]: 0.06 µg/mL (≈ 0.141 µM)
- MIC ([8]; Clostridium sporogenes, ATCC3584, read-out: Minimum inhibitory concentration): 32 µg/mL (≈ 75.3 µM)
- MIC ([10]; Prevotella, read-out: Minimum inhibitory concentration): ≤ 0.03 µg/mL
- Minimum inhibitory concentration [10, 31]: ≦0.03 ug/mL
- MIC ([11]; read-out: Minimum inhibitory concentration, clinical isolate MIC clindamycin 0.5 mg/L): 0.12 µg/mL (≈ 0.282 µM)
- MIC ([11]; read-out: Minimum inhibitory concentration, clinical isolate MIC clindamycin […]): 0.06 µg/mL (≈ 0.141 µM)
- MIC ([12]; Veillonella, NCTC11830, read-out: Minimum inhibitory concentration): 0.06 µg/mL (≈ 0.141 µM)
- MIC ([13]; Veillonella parvula, NCTC11810, read-out: Minimum inhibitory concentration): ≤ 0.03 µg/mL
- MIC ([14]; ATCC33559, read-out: Minimum inhibitory concentration): ≤ 0.03 µg/mL
- MIC [14, 35]: 0.06 µg/mL (≈ 0.141 µM)
- MIC ([15]; ATCC33560, read-out: Minimum inhibitory concentration): ≤ 0.03 µg/mL
- MIC [15, 35]: ≤ 0.03 µg/mL
- MIC ([16]; ATCC43504, read-out: Minimum inhibitory concentration): ≤ 0.03 µg/mL
- MIC [16, 35]: ≤ 0.03 µg/mL
- Minimum inhibitory concentration ([16]; clinical isolate (r56)): ≦0.03 ug/mL
- Minimum inhibitory concentration ([16]; clinical isolate (r57)): ≦0.03 ug/mL
- Minimum inhibitory concentration ([16]; clinical isolate (r101)): ≦0.03 ug/mL
- MIC ([17]; read-out: Minimum inhibitory concentration, ATCC 25923 - antibiotic-susceptible type strain): 0.06 µg/mL (≈ 0.141 µM)
- MIC ([17]; read-out: Minimum inhibitory concentration, ATCC 29213 - antibiotic-susceptible type strain): 0.06 µg/mL (≈ 0.141 µM)
- MIC ([17]; read-out: Minimum inhibitory concentration, ATCC 43300 - methicillin-resistant type strain): > 64 µg/mL
- MIC ([18]; Staphylococcus epidermidis, read-out: Minimum inhibitory concentration): 0.12 µg/mL (≈ 0.282 µM)
- Minimum inhibitory concentration [18, 33]: 0.12 µg/mL (≈ 0.282 µM)
- MIC ([19]; Staphylococcus haemolyticus, read-out: Minimum inhibitory concentration): 0.06 µg/mL (≈ 0.141 µM)
- MIC ([20]; ATCC49619, read-out: Minimum inhibitory concentration): ≤ 0.03 µg/mL
- MIC [20, 35]: ≤ 0.03 µg/mL
- Minimum inhibitory concentration [21, 34]: ≦0.03 ug/mL
- MIC ([21]; Streptococcus pyogenes, read-out: Minimum inhibitory concentration): ≤ 0.03 µg/mL
- MIC ([22]; Streptococcus, read-out: Minimum inhibitory concentration): ≤ 0.03 µg/mL
